Target: T1, TBK1 (Homo sapiens, UniProt Q9UHD2)
T1 construct: All protein kinases were of human origin and encoded full length proteins, unless indicated otherwise; His6; made in house; host or cells: insect Sf21 cells
T1 sequence (Q9UHD2 1-729): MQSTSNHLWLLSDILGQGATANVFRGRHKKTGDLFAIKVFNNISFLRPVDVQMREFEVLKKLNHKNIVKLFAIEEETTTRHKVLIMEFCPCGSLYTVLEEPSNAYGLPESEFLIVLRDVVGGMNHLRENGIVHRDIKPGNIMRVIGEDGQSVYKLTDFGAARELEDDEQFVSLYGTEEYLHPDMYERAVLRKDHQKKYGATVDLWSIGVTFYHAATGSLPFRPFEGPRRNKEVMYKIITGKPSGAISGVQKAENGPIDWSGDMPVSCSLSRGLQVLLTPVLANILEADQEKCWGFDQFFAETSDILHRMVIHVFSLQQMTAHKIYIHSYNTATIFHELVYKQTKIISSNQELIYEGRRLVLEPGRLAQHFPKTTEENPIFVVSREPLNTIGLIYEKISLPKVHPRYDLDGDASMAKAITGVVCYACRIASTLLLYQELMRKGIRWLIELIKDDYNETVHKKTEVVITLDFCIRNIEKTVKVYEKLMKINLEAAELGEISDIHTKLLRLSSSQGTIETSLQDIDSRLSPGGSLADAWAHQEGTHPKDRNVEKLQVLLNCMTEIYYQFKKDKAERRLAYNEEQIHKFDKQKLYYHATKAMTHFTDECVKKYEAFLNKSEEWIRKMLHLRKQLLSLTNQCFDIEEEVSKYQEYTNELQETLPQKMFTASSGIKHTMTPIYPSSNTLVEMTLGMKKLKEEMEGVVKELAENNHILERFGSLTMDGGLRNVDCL
Assay: TBK1 protein kinase assay ([γ-33P]ATP filter-plate, IC50 from 10 concentrations)
Assay type: biochemical
Settings: 50 μM ATP, peptide substrate 300 μM, 30 min, 21° C.; read-out: Potency score (TBK1 IC50)
Source text: All protein kinases were of human origin and encoded full length proteins, unless indicated otherwise. They were either expressed as glutathione S-transferase (GST) fusion proteins in Escherichia Coli or as hexahistidine (His6)-tagged proteins in insect Sf21 cells. GST fusion proteins were purified by affinity chromatography on glutathione-Sepharose, and His6-tagged proteins on nickel/nitriloacetate-agarose. The procedures for expressing some of the protein kinases used herein have been detailed previously.^8,9 The following sections outline the DNA vectors synthesised and the procedures used to express and purifying protein kinases that have not been reported previously.
The following kinases were expressed in Sf21 cells: Aurora B and Aurora C, extra-cellular signal-regulated kinase 8 (ERK8), microtubule affinity regulating kinase 3 (MARK3), protein kinase Bα[118-480][S473D], protein kinase Bβ (PKBβ[120-481][S474D], 3-phosphoinositide-dependent protein kinase-1 [52-556] (PDK1[52-556], IKKε, TBK1,
All assays (25.5 μl) were carried out at room temperature (21° C.) and were linear with respect to time and enzyme concentration under the conditions used. Assays were performed for 30 min using Multidrop Micro reagent dispensers (Thermo Electron Corporation, Waltham, Mass. 02454, USA) in a 96-well format. The concentration of magnesium acetate in the assays was 10 mM and the [γ-33P] ATP (800 cpm/pmol) was used at 5, 20 or 50 μM as indicated, in order to be at or below the Km for ATP for each enzyme. Protein kinases assayed at 5 μM ATP were: ERK1, ERK8, PKBα, MARK3, Aurora C. Protein kinases assayed at 20 μM ATP were: JNK1, PDK1, CHK1, CHK2, CDK2 and Aurora B. Protein kinases assayed at 50 μM ATP were: MNK2, IKKepsilon and TBK1.
The assays were initiated with MgATP, stopped by addition of 5 μl of 0.5 M orthophosphoric acid and spotted on to P81 filterplates using a unifilter harvester (PerkinElmer, Boston, Mass. 02118, USA). The IC50 values of inhibitors were determined after carrying out assays at 10 different concentrations of each compound.
ERK1 and ERK8 were both assayed against myelin basic protein (MBP, 0.33 mg/ml). MARK3 was assayed against the peptide […] (300 μM), MNK2 against the eIF4E protein (0.5 mg/ml). PKBβ was assayed against the peptide GRPRTSSFAEGKK (30 μM). TBK1 were assayed against ([…]) (300 μM). The substrates used for other protein kinases were described previously.^8,9
Unless stated otherwise, enzymes were diluted in 50 mM Tris/HCl pH 7.5, 0.1 mM EGTA, 1 mg/ml BSA, 0.1% (v/v) 2-mercaptoethanol and assayed in 50 mM Tris/HCl pH 7.5, 0.1 mM EGTA, 0.1% (v/v) 2-mercaptoethanol.

Compound	IC50 [nM]
O=C(NCCCn1ccc2cnc(Nc3cccc(CN4CCOCC4)c3)nc21)C1CCC1 [Example 52, Cyclobutanecarboxylic acid {3-[2-(3-morpholin-4-ylmethyl-phenylamino)-pyrrolo[2,3-d]pyrimidin-7-yl]-propyl}-amide]	< 100
CN1CCc2ccc(Nc3ncc4ccn(CCCNC(=O)C5CCC5)c4n3)cc2C1 [Example 53, Cyclobutanecarboxylic acid {3-[2-(2-methyl-1,2,3,4-tetrahydro-isoquinolin-7-ylamino)-pyrrolo[2,3-d]pyrimidin-7-yl]-propyl}-amide]	< 100
O=C(NCCCn1ccc2cnc(Nc3ccc(-c4cnco4)cc3)nc21)C1CCC1 [Example 54, Cyclobutanecarboxylic acid {3-[2-(4-oxazol-5-yl-phenylamino)-pyrrolo[2,3-d]pyrimidin-7-yl]-propyl}-amide]	< 100
CN1CCCN(c2ccc(Nc3ncc4ccn(CCCNC(=O)C5CCC5)c4n3)cn2)CC1 [Example 55, Cyclobutanecarboxylic acid (3-{2-[6-(4-methyl-perhydro-1,4-diazepin-1-yl)-pyridin-3-ylamino]-pyrrolo[2,3-d]pyrimidin-7-yl}-propyl)-amide]	100 to 1000
CN1CCC(c2ccc(Nc3ncc4ccn(CCCNC(=O)C5CCC5)c4n3)cc2)CC1 [Example 56, Cyclobutanecarboxylic acid (3-{2-[4-(1-methyl-piperidin-4-yl)-phenylamino]-pyrrolo[2,3-d]pyrimidin-7-yl}-propyl]-amide]	< 100
CN1CCC(O)(c2ccc(Nc3ncc4ccn(CCCNC(=O)C5CCC5)c4n3)cc2)CC1 [Example 57, Cyclobutanecarboxylic acid (3-{2-[4-(4-hydroxy-1-methyl-piperidin-4-yl)-phenylamino]-pyrrolo[2,3-d]pyrimidin-7-yl}-propyl)amide]	< 100
COC1(c2ccc(Nc3ncc4ccn(CCCNC(=O)C5CCC5)c4n3)cc2)CCN(C)CC1 [Example 58, Cyclobutanecarboxylic acid (3-{2-[4-(4-methoxy-1-methyl-piperidin-4-yl)-phenylamino]-pyrrolo[2,3-d]pyrimidin-7-yl}-propyl)-amide]	< 100
CN1CCC(C#N)(c2ccc(Nc3ncc4ccn(CCCNC(=O)C5CCC5)c4n3)cc2)CC1 [Example 59, Cyclobutanecarboxylic acid (3-{2-[4-(4-cyano-1-methyl-piperidin-4-yl)-phenylamino]-pyrrolo[2,3-d]pyrimidin-7-yl}-propyl)-amide]	< 100
O=C(NCCCn1ccc2cnc(Nc3ccc(C4CCN(CCF)CC4)cc3)nc21)C1CCC1 [Example 60, Cyclobutanecarboxylic acid [3-(2-{4-[1-(2-fluoro-ethyl)-piperidin-4-yl]-phenylamino}-pyrrolo[2,3-d]pyrimidin-7-yl)-propyl]-amide]	< 100

Reference: patent US20120088753A1, “PYRROLOPYRIMIDINES AND USED AS KINASE INHIBITORS” (MEDICAL RESEARCH COUNCIL TECHNOLOGY, priority 2009, published 2012)
